From ChEMBL document CHEMBL1136550, “Discovery of orally bioavailable NK1 receptor antagonists” (Bioorg Med Chem Lett, 2003)
Converted amounts (≈) assume the structure as drawn. Blank lines part the entries; values can stand above or below the compound they belong to.

Tests used:
Substance-P receptor [1] = target: T1, Substance-P receptor (Homo sapiens, UniProt P25103); test: Displacement of [3H]-substance P from human NK1 receptor expressed in CHO cells; type: cell-based
[2] = LogD distribution coefficient between octanol and PBS at pH7.4; type: physicochemical; conditions: pH 7.4, read-out: LogD7.4
[3] = Solubility was measured; type: physicochemical
Substance-P receptor [4] = target: T1, Substance-P receptor; test: Displacement of [3H]-substance P from human NK1 receptor expressed in CHO cells, at 10e-5 M; type: cell-based
Cavia porcellus [5] = test: Inhibition of SP-induced pulmonary edema in guinea-pig 30 min after oral administration at a dose of 10 mg/kg; type: functional; conditions: 0.5 h
Cavia porcellus [6] = test: Inhibition of SP-induced pulmonary edema in guinea-pig 120 min after oral administration at a dose of 10 mg/kg; type: functional; conditions: 2 h
Cavia porcellus [7] = test: Inhibition of SP-induced pulmonary edema in guinea-pig 60 min after oral administration at a dose of 10 mg/kg; type: functional; conditions: 1 h
Cavia porcellus [8] = test: Inhibition of SP-induced pulmonary edema in guinea-pig 240 min after oral administration at a dose of 10 mg/kg; type: functional; conditions: 4 h
Rattus norvegicus = organism: Rattus norvegicus; test: Inhibition of contraction induced by 100 mM KCl in isolated rat aorta; type: functional
Caco-2 = test: Caco-2 permeability was measured; type: functional, cell-based; conditions: Homo sapiens
[9] = pKa value was evaluated; type: physicochemical

T1 sequence (P25103 whole entry): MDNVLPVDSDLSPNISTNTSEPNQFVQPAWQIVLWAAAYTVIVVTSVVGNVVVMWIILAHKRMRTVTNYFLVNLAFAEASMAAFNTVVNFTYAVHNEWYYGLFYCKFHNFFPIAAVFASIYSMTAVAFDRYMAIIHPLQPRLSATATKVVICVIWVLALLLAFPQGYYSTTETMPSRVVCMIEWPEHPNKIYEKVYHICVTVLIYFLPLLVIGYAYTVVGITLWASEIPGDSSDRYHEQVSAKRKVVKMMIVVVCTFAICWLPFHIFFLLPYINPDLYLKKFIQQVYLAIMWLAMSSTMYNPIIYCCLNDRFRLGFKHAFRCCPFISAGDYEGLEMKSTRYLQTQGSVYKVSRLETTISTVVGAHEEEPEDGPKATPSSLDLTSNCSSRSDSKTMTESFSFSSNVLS

Compound: FC(F)(F)c1ccc(COCC(c2ccccc2)N2CCNCC2)c(C(F)(F)F)c1 (configuration not stated)
- Ki (Substance-P receptor [1]): 15.8 nM

Compound: Clc1cc(Cl)cc(COCC(c2ccccc2)N2CCNCC2)c1 (configuration not stated)
- Ki (Substance-P receptor [1]): 3.16 nM

Compound: C[C@@H](OC[C@@H](c1ccccc1)N1CCN(CC(=O)O)CC1)c1cc(C(F)(F)F)cc(C(F)(F)F)c1
- inhibition (Substance-P receptor [4]): < 20%

Compound: C[C@H](OC[C@@H](c1ccccc1)N1CCN(CC(=O)O)CC1)c1cc(C(F)(F)F)cc(C(F)(F)F)c1
- Ki (Substance-P receptor [1]): 3.16 nM

Compound: COc1cc(CN2CCN(C(COCc3cc(C(F)(F)F)cc(C(F)(F)F)c3)c3ccccc3)C(Cc3ccccc3)C2)cc(OC)c1OC (configuration not stated)
- Ki (Substance-P receptor [1]): 251 nM
- logD [2]: 5.2
- solubility [3]: 0.6 µg/mL (≈ 0.854 µM)

Compound: FC(F)(F)c1cc(COCC(c2cccc3ccccc23)N2CCNCC2)cc(C(F)(F)F)c1 (configuration not stated)
- Ki (Substance-P receptor [1]): 1.58 nM

Compound: Cc1ccccc1C(COCc1cc(C(F)(F)F)cc(C(F)(F)F)c1)N1CCNCC1 (configuration not stated)
- Ki (Substance-P receptor [1]): 1 nM

Compound: c1ccc(COCC(c2ccccc2)N2CCNCC2)cc1 (configuration not stated)
- inhibition (Substance-P receptor [4]): < 20%

Compound: COc1cc(COCC(c2ccccc2)N2CCNCC2)cc(OC)c1OC (configuration not stated)
- Ki (Substance-P receptor [1]): 126 nM

Compound: FC(F)(F)Oc1ccccc1COCC(c1ccccc1)N1CCNCC1 (configuration not stated)
- inhibition (Substance-P receptor [4]): 50%

Compound: Clc1cccc(COCC(c2ccccc2)N2CCNCC2)c1 (configuration not stated)
- Ki (Substance-P receptor [1]): 398 nM

Compound: Cc1cccc(C(COCc2cc(C(F)(F)F)cc(C(F)(F)F)c2)N2CCNCC2)c1 (configuration not stated)
- Ki (Substance-P receptor [1]): 3.16 nM

Compound: COc1ccc(C(COCc2cc(C(F)(F)F)cc(C(F)(F)F)c2)N2CCNCC2)cc1 (configuration not stated)
- Ki (Substance-P receptor [1]): 50.1 nM

Compound: FC(F)(F)c1cc(COCC(c2ccc(Cl)c(Cl)c2)N2CCNCC2)cc(C(F)(F)F)c1 (configuration not stated)
- Ki (Substance-P receptor [1]): 6.31 nM

Compound: COc1cccc(C(COCc2cc(C(F)(F)F)cc(C(F)(F)F)c2)N2CCNCC2)c1 (configuration not stated)
- Ki (Substance-P receptor [1]): 1 nM

Compound: Cc1cc(C)cc(COCC(c2ccccc2)N2CCNCC2)c1 (configuration not stated)
- Ki (Substance-P receptor [1]): 25.1 nM

Compound: FC(F)(F)c1cc(COCC(c2ccccc2Cl)N2CCNCC2)cc(C(F)(F)F)c1 (configuration not stated)
- Ki (Substance-P receptor [1]): 1.58 nM

Further lines, with some results ahead:

- Ki (Substance-P receptor [1]): 6.31 nM
- logD [2]: 2.71
- solubility [3]: 200 µg/mL (≈ 359 µM)
Compound: FC(F)(F)c1cc(COCC(c2ccccc2)N2CCN(CCCCc3nn[nH]n3)CC2)cc(C(F)(F)F)c1 (configuration not stated)

- Ki (Substance-P receptor [1]): 7.94 nM
Compound: N#CCN1CCN(C(COCc2cc(C(F)(F)F)cc(C(F)(F)F)c2)c2ccccc2)CC1 (configuration not stated)

- Ki (Substance-P receptor [1]): 20 nM
Compound: NC(=O)N1CCN(C(COCc2cc(C(F)(F)F)cc(C(F)(F)F)c2)c2ccccc2)CC1 (configuration not stated)
- inhibition in vivo at 10 mg/kg (Cavia porcellus [5]): 15%
- inhibition in vivo at 10 mg/kg (Cavia porcellus [6]): 26%
- inhibition in vivo at 10 mg/kg (Cavia porcellus [7]): 47%

- Ki (Substance-P receptor [1]): 15.8 nM
- logD [2]: 2.35
- solubility [3]: 1300 µg/mL (≈ 2650 µM)
Compound: O=C(O)CN1CCN(C(COCc2cc(C(F)(F)F)cc(C(F)(F)F)c2)c2ccccc2)CC1 (configuration not stated)
- inhibition in vivo at 10 mg/kg (Cavia porcellus [5]): 84%
- inhibition in vivo at 10 mg/kg (Cavia porcellus [6]): 68%
- inhibition in vivo at 10 mg/kg (Cavia porcellus [8]): 53%
- pD2 (Rattus norvegicus): <4
- inhibition in vivo at 10 mg/kg (Cavia porcellus [7]): 76%
- Papps (Caco-2): 9.6 ×10⁻⁶ cm/s

- Ki (Substance-P receptor [1]): 15.8 nM
Compound: FC(F)(F)c1cc(COCC(c2ccccc2)N2CCN(CCN3CCOCC3)CC2)cc(C(F)(F)F)c1 (configuration not stated)

- Ki (Substance-P receptor [1]): 10 nM
Compound: O=C(O)CCCCN1CCN(C(COCc2cc(C(F)(F)F)cc(C(F)(F)F)c2)c2ccccc2)CC1 (configuration not stated)

- Ki (Substance-P receptor [1]): 63.1 nM
Compound: FC(F)(F)c1cc(COCC(c2ccccc2)N2CCN(Cc3nn[nH]n3)CC2)cc(C(F)(F)F)c1 (configuration not stated)

- inhibition (Substance-P receptor [4]): < 20%
Compound: O=C(O)CCCC(=O)N1CCN(C(COCc2cc(C(F)(F)F)cc(C(F)(F)F)c2)c2ccccc2)CC1 (configuration not stated)

- Ki (Substance-P receptor [1]): 1.58 nM
Compound: CN1CCN(C(COCc2cc(C(F)(F)F)cc(C(F)(F)F)c2)c2ccccc2)CC1 (configuration not stated)

- inhibition (Substance-P receptor [4]): < 20%
Compound: C[C@@H](OC[C@@H](c1ccccc1)N1CCN(CCOCC(=O)O)CC1)c1cc(C(F)(F)F)cc(C(F)(F)F)c1

- Ki (Substance-P receptor [1]): 10 nM
- logD [2]: 3.26
- pKa [9]: 6.2
- solubility [3]: 2 µg/mL (≈ 4.09 µM)
Compound: NC(=O)CN1CCN([C@@H](COCc2cc(C(F)(F)F)cc(C(F)(F)F)c2)c2ccccc2)CC1
- pD2 (Rattus norvegicus): 4.27
- Papps (Caco-2): 7.9 ×10⁻⁶ cm/s

- Ki (Substance-P receptor [1]): 15.8 nM
- logD [2]: 2.17
- solubility [3]: > 2000 µg/mL
Compound: O=C(O)COCCN1CCN(C(COCc2cc(C(F)(F)F)cc(C(F)(F)F)c2)c2ccccc2)CC1 (configuration not stated)
- inhibition in vivo at 10 mg/kg (Cavia porcellus [5]): 53%
- inhibition in vivo at 10 mg/kg (Cavia porcellus [6]): 54%
- inhibition in vivo at 10 mg/kg (Cavia porcellus [8]): 29%
- pD2 (Rattus norvegicus): <4
- inhibition in vivo at 10 mg/kg (Cavia porcellus [7]): 61%
- Papps (Caco-2): 4.2 ×10⁻⁶ cm/s
